Assay results published in patent US11479555B2, “Substituted 1,2-dihydro-3H-pyrazolo[3,4-D]pyrimidin-3-ones as inhibitors of WEE-1 kinase” (Newave Pharmaceutical Inc., priority 2018, dated 2022).

Experiments:
LoVo = assay: In vitro cellular anti-proliferation assay (ATPlite), LoVo; format: cell-based; settings: Homo sapiens, about 72 hours, 5% FBS
Description: (§1) Cell antiproliferation was assayed by PerkinElmer ATPlite™ Luminescence Assay System. Briefly, the various test cancer cell lines were plated at a density of about 1×10^4 cells per well in Costar 96-well plates, and were incubated with different concentrations of compounds for about 72 hours in medium supplemented with 5% FBS. One lyophilized substrate solution vial was then reconstituted by adding 5 mL of substrate buffer solution, and was agitated gently until the solution was homogeneous. About 50 μL of mammalian cell lysis solution was added to 100 μL of cell suspension per well of a microplate, and the plate was shaken for about five minutes in an orbital shaker at ˜700 rpm. This procedure was used to lyse the cells and to stabilize the ATP. Next, 50 μL substrate solution was added to the wells and microplate was shaken for five minutes in an orbital shaker at ˜700 rpm. Finally, the luminescence was measured by a PerkinElmer TopCount® Microplate Scintillation Counter. Such assays, carried out with a range of doses of test compounds, allowed the determination of the cellular anti-antiproliferative IC50 of the compounds of the present invention.
(§2) The following table lists the LoVo IC50 values of another study for certain compounds of the invention.

A498 = assay: In vitro cellular anti-proliferation assay (ATPlite), A498; format: cell-based; settings: Homo sapiens, about 72 hours, 5% FBS
Description: as §1, §2

SK-MES-1 = assay: In vitro cellular anti-proliferation assay (ATPlite), SK-MES-1; format: cell-based; settings: Homo sapiens, about 72 hours, 5% FBS
Description: as §1, §2

Mice CNS PK study = format: in vivo; settings: CD-1 mouse; for AUC(0-t): plasma, read-out: Plasma AUClast; for Kp: brain/plasma (printed as Brain/Blood), read-out: Brain/Blood Ratio
Description: The pharmacokinetics of compounds were evaluated in CD-1 mouse via Intravenous and Oral Administration. The iv dose was administered as a slow bolus in the Jugular vein, and oral doses were administered by gavage. The formulation for IV dosing is 5% DMSO in “20% HPBCD in water, and the PO formulation is 2.5% DMSO, 10% EtOH, 20% Cremphor EL, 67.5% D5W. The PK time point for the IV arm is 5, 15, 30 min, 1, 2, 4, 6, 8, 12, 24 hours post dose, and for PO arm is 15, 30 min, 1, 2, 4, 6, 8, 12, 24 hours post dose.
Plasma Samples Processing and Storage: Approximately 0.2 mL blood will be collected at each time point. Keep blood at room temperature and collect plasma within 15 min by centrifugation at 4000 g for 5 minutes in a 4° C. centrifuge. Plasma samples will be stored in polypropylene tubes. The plasma samples will be stored in a freezer at −75±15° C. prior to analysis.
Brain Samples Processing and Storage: The mice will be fully exsanguinated prior to tissue collection. Procedure: open chest cavity, cut ventricle and perform a gentle iv saline flush (saline flush volume ˜10 ml) with the animal placed head down at a 45 degree angle to facilitate blood removal. Tissue samples will be collected at adopted time point, quick frozen in ice box and kept at −75±15° C. All tissue samples will be weighted and homogenized with water by tissue weight (g) to water volume (mL) at ratio 1:3 before analysis. The actual concentration is the detected value multiplied by the dilution factor.
Concentrations of compounds in the plasma samples will be analyzed using a LC-MS/MS method. WinNonlin (Phoenix™, version 6.1) or other similar software will be used for pharmacokinetic calculations. The following pharmacokinetic parameters will be calculated, whenever possible from the plasma concentration versus time data: IV administration: C0, CL, Vd, T1/2, AUCinf, AUClast, MRT, Number of Points for Regression; PO administration: Cmax, Tmax, T1/2, AUCinf, AUClast, F %, Number of Points for Regression. The pharmacokinetic data will be described using descriptive statistics such as mean, standard deviation. Additional pharmacokinetic or statistical analysis may be performed at the discretion of the contributing scientist, and will be documented in the data summary.

WEE1 = settings: inhibits WEE1 activity, induces DNA damage and G2 checkpoint escape; read-out: EC50 in cell based assays; cited from earlier work
tumor = assay: In vivo xenograft study; design: species or system CB.17 SCID mice; settings: 7 dose at 100 mg/kg, day 18
Text: The CB.17 SCID mice are obtained at age 6-8 weeks from vendors and acclimated for a minimum 7-day period. The cancer cells are then implanted into the […] mice. Depending on the specific tumor type, tumors are typically detectable about two weeks following implantation. When tumor sizes reach ˜100-200 mm^3, the animals with appreciable tumor size and shape are randomly assigned into groups of 8 mice each, including one vehicle control group and treatment groups. Dosing varies depending on the purpose and length of each study, which typically proceeds for about 3-4 weeks. Tumor sizes and body weight are typically measured three times per week. In addition to the determination of tumor size changes, the last tumor measurement is used to generate the tumor size change ratio (T/C value), a standard metric developed by the National Cancer Institute for xenograft tumor evaluation. […] When tumor regression occurred (ΔT<0), however, the following formula is used: % T/T0=100×ΔT/T0.

Wee1 kinase = Wee1 kinase (Homo sapiens (Human), UniProt P30291); assay: Wee-1 biochemical assay; settings: another study
Description: In determination of the Weel kinase activity, a synthetic peptide, Poly(Lys,Tyr) Hydrobromide (Lys:Tyr (4:1)) bought from Sigma was used as the substrate. The amount of the reaction mixture was 21.1 μL; and the composition of the reaction buffer was 50 mM Tris-HCl buffer (pH 7.4)/10 mM magnesium chloride/1 mM dithiothreitol. The purified Weel kinase, 2.5 μg of the substrate peptide, 10 μM of non-labeled adenosine triphosphate (ATP) and 1 μCi of [γ-^33P]-labeled ATP (2500 Ci/mmol or more) were added to it, and incubated at 30° C. for 30 minutes. Next, 10 μL of 350 mM phosphate buffer was added to the reaction mixture to stop the reaction. The substrate peptide was adsorbed by a P81 paper filter 96-well plate, then washed a few times with 130 mM phosphate buffer, and its radioactivity was counted with a liquid scintillation counter. The [γ-^33P]-labeled ATP was bought from Amersham Bioscience. To add the test compound to the reaction system, the compound was diluted with dimethylsulfoxide (DMSO) to prepare a series of dilutions. 1.1 μL of each dilution was added to the reaction system. As a control, 1.1 μL of DMSO was added to the reaction system. Such assays, carried out with a range of doses of test compounds, allow the determination of the Wee1 IC50 of the compounds of the present invention

Wee1 kinase, sequence (P30291 whole entry): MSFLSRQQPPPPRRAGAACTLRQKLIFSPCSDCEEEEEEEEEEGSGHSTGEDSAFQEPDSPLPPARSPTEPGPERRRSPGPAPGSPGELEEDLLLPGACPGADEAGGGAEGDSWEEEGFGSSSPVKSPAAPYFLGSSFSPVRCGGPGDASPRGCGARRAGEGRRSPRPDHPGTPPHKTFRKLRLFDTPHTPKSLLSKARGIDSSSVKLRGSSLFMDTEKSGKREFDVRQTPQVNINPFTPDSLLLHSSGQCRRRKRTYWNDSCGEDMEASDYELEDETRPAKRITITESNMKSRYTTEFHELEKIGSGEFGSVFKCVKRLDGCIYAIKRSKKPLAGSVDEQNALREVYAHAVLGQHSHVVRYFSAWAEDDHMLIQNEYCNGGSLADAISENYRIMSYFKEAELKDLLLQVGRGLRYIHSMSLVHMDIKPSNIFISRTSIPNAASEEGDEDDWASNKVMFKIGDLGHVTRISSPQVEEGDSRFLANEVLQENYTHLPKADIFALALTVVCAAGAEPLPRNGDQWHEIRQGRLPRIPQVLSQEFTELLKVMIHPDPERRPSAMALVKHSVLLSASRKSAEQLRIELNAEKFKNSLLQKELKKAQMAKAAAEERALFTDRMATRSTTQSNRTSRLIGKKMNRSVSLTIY

SMILES	IC50 (LoVo) [nM]	IC50 (A498) [nM]	IC50 (SK-MES-1) [nM]	Brain AUClast (Mice CNS PK study)	AUC(0-t) (Mice CNS PK study) [ng·h/mL]	Kp (Mice CNS PK study)	EC50 (WEE1) [nM]	tumor regression (tumor)	IC50 (Wee1 kinase) [nM]
C=CCn1c(=O)c2cnc(Nc3ccc(N4CCN(C)CC4)cc3)nc2n1-c1cccc(C(C)(C)O)n1 [AZD1775, reference compound]	< 300	< 500	< 250	524 ng·h/mL	9000	0.058	[…]		
C=CCn1c(=O)c2cnc(Nc3cnn(C4CCN(C5CCC(F)(F)CC5)CC4)c3)nc2n1-c1cccc(C(C)(C)O)n1.Cl [Example 3, 6-([1-[1-(4,4-difluorocyclohexyl)piperidin-4-yl]-1H-pyrazol-4-yl]amino)-1-[6-(2-hydroxypropan-2-yl)pyridin-2-yl]-2-(prop-2-en-1-yl)-1H,2H,3H-pyrazolo[3,4-d]pyrimidin-3-one Hydrochloride]								complete regression of the tumor	
CC(C)n1c(=O)c2cnc(Nc3ccc(N4CCN(C)CC4)cc3)nc2n1-c1cccc(C(C)(C)C(F)(F)F)n1 [Example 11, 2-isopropyl-6-((4-(4-methylpiperazin-1-yl)phenyl)amino)-1-(6-(1,1,1-trifluoro-2-methylpropan-2-yl)pyridin-2-yl)-1,2-dihydro-3H-pyrazolo[3,4-d]pyrimidin-3-one]	< 300	< 500	< 250	12,002 h*ng/mL	7510	1.6			< 1.5
CC(C)n1c(=O)c2cnc(Nc3ccc(N4CCN(C)CC4)cc3)nc2n1-c1cccc(C(C)(C)F)n1 [Example 13, 1-(6-(2-fluoropropan-2-yl)pyridin-2-yl)-2-isopropyl-6-((4-(4-methylpiperazin-1-yl)phenyl)amino)-1,2-dihydro-3H-pyrazolo[3,4-d]pyrimidin-3-one]	< 300	< 500	< 250	11,907 h*ng/mL	8660	1.38			< 1.5
CC(C)n1c(=O)c2cnc(Nc3ccc(N4CCN(C)CC4)cc3)nc2n1-c1cccc(C2CC2)n1 [Example 15, 1-(6-cyclopropylpyridin-2-yl)-2-isopropyl-6-((4-(4-methylpiperazin-1-yl)phenyl)amino)-1,2-dihydro-3H-pyrazolo[3,4-d]pyrimidin-3-one]	< 300	< 500	< 250	4,910 h*ng/mL	4710	1			< 1.5
